Test results published in patent US6693126B2, “Dihydroxyphenyl derivatives for hepatoprotection and treatment of liver diseases” (Choongwae Pharm. Co., Ltd., priority 2000, dated 2004).

Assays:
[1] = tested on: Fulminant Liver Injuries caused by D-galactosamine/lipopolysaccharide in Mice; experiment: Inhibitory effect against fulminant liver injuries caused by D-galactosamine/lipopolysaccharide in mice (survival); assay type: in vivo, Mice (ICR, male); settings: D-galactosamine 800 mg/kg + lipopolysaccharide 10 μg/kg i.p., observed 24 hours
Description: Further, the D-galactosamine/lipopolysaccharide model(see, Chris Galanos et al., Proc. Natl. Acad. Sci. USA, 76, 11, 5939-5943, 1979; Koji Hase et al., Biol. Pharm. Bull., 20, 4, 381-385, 1997; Junichi Nagakawa et al., The Journal of Pharmacology and Experimental Therapeutics, 264, 1, 1992; Nolan J. D., Hepatology, 1, 458-465, 1981; Wendel A., Methods Enzymol., 186, 675-680, 1990) which is also used in the present invention for the identification of hepatoprotective effect is based on the phenomena that liver injuries are caused by immune responses in mouse. It has been reported that such kind of liver injuries are caused not by direct tissue lesions due to the chemicals but by secretion of tumor necrosis factor(TNF)-α, reactive oxygen, etc.(see, Hishinuma I. et al., Hepatology, 12, 1187-1191, 1990, Hase K. et al., Phytother. Res., 10, 387-392, 1996). Here, D-galactosamine supresses protein biosynthesis and as well highly increases the sensitivity of the liver cells for lipopolysaccharide by reducing uridine nucleotide.
The hepatoprotective effect of the compound of the present invention was identified according to a known procedure(see, Koji Hase et al., Biol. Pharm. Bull., 20, 4, 381-385, 1997), and the protocol may be described in brief as follows.
Mice(ICR, male, 27˜35 g) as the test animal were allowed in a condition of temperature 22±1° C. and relative humidity 60±5%. Feed and water were provided with no restriction while light and darkness were changed at an interval of 12 hours.
The compound of the present invention was suspended in a solvent corn oil, and this suspension was administered in a dose of 10 ml/kg. Each group included 10 test animals, and the test compound was orally administered once per animal. After 1 hour from the administration of the test compound, D-galactosamine and lipopolysaccharide each of which dissolved in physiological saline were intraperitoneally injected at the same time in doses of 800 mg/kg and 10 μg/kg, respectively. As the control compounds, SY-640[N-methyl-N-(3,4-methylenedioxyphenacyl)acetamide; EP0350251], silymarin and DDB were selected.
The statistical significance for the test result of each group was examined based on Student's t-test, and the result was recognized as having a statistical significance when its P value is less than 5%.

[2] = tested on: Liver Injuries caused by Carbon Tetrachloride in Rats; experiment: Inhibitory effect against liver injuries caused by carbon tetrachloride in rats; assay type: in vivo, Rats (SD, male); settings: CCl4 i.p., serum 24 h
Description: The carbon tetrachloride model(see, Philippe letteron et al., Biochemical Pharmacology, 39, 12, 2027-2034, 1990; Tips, 10, 1989; Kyoichi Kagawa et al., Japan J. Pharmacol., 42, 19-26, 1986; K. T. Liu and P. Lesca, Chem. Biol. Interactions, 41, 39-47, 1982; Richard O. et al., J. Biological Chemistry, 236, 2, 1961) is used most generally. This model has been established based on the internal phenomena that carbon tetrachloride is converted by cytochrome P-450 to a toxic free radical trichloromethyl(CCl3.), this radical is strongly bound to a thiol group of membrane protein on microsome of liver to form a lipid radical, which is then converted to a peroxy radical in the presence of oxygen to facilitate the peroxidation reaction of membrane lipid. That is, carbon tetrachloride suppresses protein biosynthesis in the liver, induces the increase of ALT and AST values in blood, and further causes histologically the centrilobular necrosis of the liver.
The degree of liver damage in the experimental animals was determined by measuring ALT and AST values in blood(see, Biol. Pharm. Bull., 20, 4, 381-385, 1997; Toxicology and Applied Pharmacology, 95, 1-11, 1988), and the hepatoprotective activity was calculated based on the following formula(see, Planta Medica, 55, 127-132, 1989). At this time, the hepatoprotective activity can also be calculated based on the same formula by replacing ALT value with AST value. [formula]
The hepatoprotective effect of the compound of the present invention was identified according to a known procedure(see, Philippe letteron et al., Biochemical Pharmacology, 39, 12, 2027-2034, 1990), and the protocol may be described in brief as follows.
Rats(SD, male, 180˜200 g) and mice(ICR, male, 27-35 g) used in the test were allowed in a condition of temperature 22±1° C. and relative humidity 60±5%. Feed and water were provided with no restriction while light and darkness were changed at an interval of 12 hours.
[…] […] Each group included 8 test animals, and the test compound was orally administered once per animal. After 30 minutes(rat) or 1 hour(mouse) from the administration of the test compound, 10% carbon tetrachloride in corn oil solution was intraperitoneally injected in doses of 2 ml/kg in rats and 0.15 ml/kg in mice. As the control compounds, silymarin and DDB were selected.
The test animals were provided with no feed and sufficient water for 24 hours from the administration of carbon tetrachloride. […] This blood was centrifuged to obtain sera. ALT and AST values in the sera were measured using blood chemistry analyzer(Vitalab, Selectra II, Merck). The statistical significance for the test result of each group was examined based on Student's t-test, and the result was recognized as having a statistical significance when its P value is less than 5%.

| Compound | Survival Rate (%) ([1]; dose 50 mg/kg oral once) | Inhibitory Effect against Liver Injuries (%) ALT ([2]; dose 1.9 mg/kg p.o. once) [%] | Inhibitory Effect against Liver Injuries (%) ALT ([2]; dose 5.6 mg/kg p.o. once) [%] | Inhibitory Effect against Liver Injuries (%) ALT ([2]; dose 16.7 mg/kg p.o. once) [%] | Inhibitory Effect against Liver Injuries (%) ALT ([2]; dose 50 mg/kg p.o. once) [%] | Survival Rate (%) ([1]; dose 5.6 mg/kg oral once) |
| --- | --- | --- | --- | --- | --- | --- |
| O/N=C/c1ccc2c(c1)OCO2 [Compound 1] | 90 | 44 | 43 | 68 | 84 | – |
| COc1cc(/C=N/OCc2ccccn2)cc2c1OCO2 [Compound 13, 6-(2-((2-pyridyl)methoxy)-2-azavinyl)-4-methoxybenzo [d]1,3-dioxolane] | 90 | 53 | 49 | 59 | 67 | – |
| c1csc(-c2ccc3c(c2)OCO3)n1 [Compound 21, 2-(benzo[3,4-d]1,3-dioxolan-5-yl)-1,3-thiazole] | – | – | – | 63 | 67 | 100 |
| CC(=O)SCC(=O)c1ccc2c(c1)OCO2 [Compound 28, 1-(benzo[3,4-d]1,3-dioxolan-5-yl)-2-acetylthioethan-1-one] | – | – | – | 14 | 41 | 100 |
| COC(=O)c1cc(OC)c2c(c1-c1c(C(=O)OC)cc(OC)c3c1OCO3)OCO2 [DDB, reference compound] | 80 | – | – | – | 21 | – |
